Reference: patent US20100119599A1 (ARCHER PHARMACEUTICALS, INC., priority 2006, published 2010)

What was measured:
[1] = test system: Aβ1-42; assay: Measurement of Aβ1-42 in culture medium of 7W WT APP751 CHO cells by ELISA; format: cell-based, Chinese hamster; conditions: for activity at 5 µM: Cricetulus griseus, Table 1, 5 μM test compound, CHO cells stably transfected with human APP751, culture medium, ELISA, control DMSO, 0 = no detectable amount, read-out: Aβ1-42 (% of control); for Aβ1-42 (% of control): CHO cells that overexpress APP751, zero = below the detection limit of the assay
[2] = test system: Aβ1-40; assay: Measurement of Aβ1-40 in culture medium of 7W WT APP751 CHO cells by ELISA; format: cell-based, Chinese hamster; conditions: for activity at 5 µM: Cricetulus griseus, Table 1, 5 μM test compound, CHO cells stably transfected with human APP751, culture medium, ELISA, control DMSO, 0 = no detectable amount; for Aβ1-40 (% of control): CHO cells that overexpress APP751, zero = below the detection limit of the assay
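Note: 5 µM test compound but RI-coded compounds at 10 µM for 24 hours.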

SMILES	activity at 5 µM [1]	activity at 5 µM [2]	Aβ1-42 (% of control) [1]	Aβ1-40 (% of control) [2]
CC1=C(C(=O)OCC(C)C)C(c2ccc3c(c2)OCO3)C2=C(CC(c3ccccc3)CC2=O)N1 (stereo not shown) [ST016978, 2-methylpropyl 4-(2H-benzo[3,4-d]1,3-dioxolen-5-yl)-2-methyl-5-oxo-7-phenyl-1,4,6,7,8-pentahydroquinoline-3-carboxylate]	99.5%	45.9%	–	–
CC1=C(C(=O)Nc2ccccc2)C(c2cccs2)C(C#N)=C(SCC(=O)Nc2ccccc2)N1 (stereo not shown) [RI_66]	–	–	23.6 % of control	20.6 % of control
CCOC(=O)C1=C(C)NC2=C(C(=O)CC(C)(C)C2)C1c1ccc(Cl)cc1Cl (stereo not shown) [ST020008, ethyl 4-(2,4-dichlorophenyl)-2,7,7-trimethyl-5-oxo-1,4,6,7,8-pentahydroquinoline-3-carboxylate]	95.7%	61.7%	–	–
CC1=C(C(=O)OCc2ccccc2)C(c2ccccc2Br)C2=C(CCCC2=O)N1 (stereo not shown) [ST052408, phenylmethyl 4-(2-bromophenyl)-2-methyl-5-oxo-1,4,6,7,8-pentahydroquinoline-3-carboxylate]	63.4%	63%	–	–
COCCOC(=O)C1=C(C)NC2=C(C(=O)CCC2)C1c1ccccc1 (stereo not shown) [ST013253, 2-methoxyethyl 2-methyl-5-oxo-4-phenyl-1,4,6,7,8-pentahydroquinoline-3-carboxylate]	85.8%	50.2%	–	–
N#CC1=C(N)NC(SCC(N)=O)=C(C#N)C1c1cccs1 (stereo not shown) [RI_4]	–	–	64.7 % of control	92.2 % of control
CCc1ccc(C2C(C(=O)OCC(C)C)=C(C)NC3=C2C(=O)CC(c2ccccc2)C3)cc1 (stereo not shown) [ST016970, 2-methylpropyl 4-(4-ethylphenyl)-2-methyl-5-oxo-7-phenyl-1,4,6,7,8-pentahydroquinoline-3-carboxylate]	27.8%	27.7%	–	–
CCOC(=O)C1=C(C)NC2=C(C(=O)CC(c3ccc(OC)cc3)C2)C1c1cccc(Cl)c1 (stereo not shown) [ST017144, ethyl 4-(3-chlorophenyl)-7-(4-methoxyphenyl)-2-methyl-5-oxo-1,4,6,7,8-pentahydroquinoline-3-carboxylate]	55.6%	23.4%	–	–
CCOC(=O)C1=C(C)NC(C)=C(C(=O)OC)C1c1ccc(Br)cc1 (stereo not shown) [ST063245, ethyl 4-(4-bromophenyl)-5-(methoxycarbonyl)-2,6-dimethyl-1,4-dihydropyridine-3-carboxylate]	–	–	0 % of control	8.423 % of control
CC1=C(C(=O)Nc2ccccc2)C(c2c(Cl)cccc2Cl)C(C(=O)Nc2ccccc2)=C(C)N1 [ST217080, [4-(2,6-dichlorophenyl)-2,6-dimethyl-5-(N-phenylcarbamoyl)(3-1,4-dihydropyridyl)]-N-benzamide]	–	–	0 % of control	65.54 % of control
CCOC(=O)C1=CN(c2cc(C)ccc2C)C=C(C(=O)OCC)C1c1cc(OC)c(OC)cc1OC [ST052474, ethyl 1-(2,5-dimethylphenyl)-5-(ethoxycarbonyl)-4-(2,4,5-trimethoxyphenyl)-1,4-dihydropyridine-3-carboxylate]	–	–	3.498 % of control	5.404 % of control
COc1ccc(C2C(C#N)=C(N)N(c3ccccc3Cl)C3=C2C(=O)CCC3)cc1O (stereo not shown) [ST051958, 2-amino-1-(2-chlorophenyl)-4-(3-hydroxy-4-methoxyphenyl)-5-oxo-1,4,6,7,8-pentahydroquinoline-3-carbonitrile]	80.2%	56.6%	–	–
COc1ccc(COC(=O)C2=C(C)NC3=C(C(=O)CCC3)C2c2cccc(F)c2)cc1 (stereo not shown) [ST016959, (4-methoxyphenyl)methyl 4-(3-fluorophenyl)-2-methyl-5-oxo-1,4,6,7,8-pentahydroquinoline-3-carboxylate]	57.2%	28.8%	–	–
CC1=C(C(=O)Nc2ccc(Cl)cc2)C(c2ccccc2)C(C#N)=C(SCC(=O)Nc2ccc(C)cc2)N1 (stereo not shown) [RI_41]	–	–	30.7 % of control	36.4 % of control
CCOc1cc(C2C(C(=O)OCc3ccc(OC)cc3)=C(C)NC3=C2C(=O)CC(C)(C)C3)ccc1O (stereo not shown) [ST016964, (4-methoxyphenyl)methyl 4-(3-ethoxy-4-hydroxyphenyl)-2,7,7-trimethyl-5-oxo-1,4,6,7,8-pentahydroquinoline-3-carboxylate]	40%	36.4%	–	–
COc1cc(C2C(C(=O)OCCc3ccccc3)=C(C)NC3=C2C(=O)CC(C)(C)C3)ccc1O (stereo not shown) [ST015094, 2-phenylethyl 4-(4-hydroxy-3-methoxyphenyl)-2,7,7-trimethyl-5-oxo-1,4,6,7,8-pentahydroquinoline-3-carboxylate]	59.8%	56.3%	–	–

SMILES	activity at 5 µM [1]	activity at 5 µM [2]	Aβ1-42 (% of control) [1]	Aβ1-40 (% of control) [2]
CCOc1ccc(NC(=O)CSC2=C(C#N)C(c3ccco3)C(C(=O)Nc3ccccc3C)=C(C)N2)cc1 (stereo not shown) [ST051158, 2-{3-cyano-4-(2-furyl)-6-methyl-5-[N-(2-methylphenyl)carbamoyl](2-1,4-dihydropyridylthio)}-N-(4-ethoxyphenyl)acetamide]	–	–	15.87 % of control	17.68 % of control
CC1=C(C(=O)OC2CCCC2)C(c2ccc(C)o2)C2=C(CC(c3cccs3)CC2=O)N1 (stereo not shown) [ST051567, cyclopentyl 2-methyl-4-(5-methyl(2-furyl))-5-oxo-7-(2-thienyl)-1,4,6,7,8-pentahydroquinoline-3-carboxylate]	85%	60.4%	–	–
CCOc1ccc(C2C(C(=O)OC)=C(C)NC3=C2C(=O)CC(c2ccc(OC)cc2)C3)cc1 (stereo not shown) [ST016974, methyl 4-(4-ethoxyphenyl)-7-(4-methoxyphenyl)-2-methyl-5-oxo-1,4,6,7,8-pentahydroquinoline-3-carboxylate]	57.4%	34.6%	–	–
COc1cccc(NC(=O)CSC2=C(C#N)C(c3ccccc3)C(C(=O)Nc3ccc(Cl)cc3)=C(C)N2)c1 (stereo not shown) [RI_55]	–	–	40.3 % of control	48.1 % of control
COc1ccc(/C=c2\sc3n(c2=O)C(N)=C(C#N)C(c2ccc(OC)cc2OC)C=3C#N)c(OC)c1 (stereo not shown) [ST025017, 5-amino-7-(2,4-dimethoxyphenyl)-2-[(2,4-dimethoxyphenyl)methylene]-3-oxo-4,7-dihydro-1,3-thiazolidino[3,2-a]pyridine-6,8-dicarbonitrile]	–	–	72.39 % of control	64.54 % of control
CC1=C(C(=O)Nc2ccc(Cl)cc2)C(c2ccccc2)C(C#N)=C(SCC(=O)Nc2ccccc2)N1 (stereo not shown) [RI_42]	–	–	36.2 % of control	27.2 % of control
CCCOc1ccccc1C1C(C(=O)OCCc2ccccc2)=C(C)NC2=C1C(=O)CC(C)(C)C2 (stereo not shown) [ST015048, 2-phenylethyl 2,7,7-trimethyl-5-oxo-4-(2-propoxyphenyl)-1,4,6,7,8-pentahydroquinoline-3-carboxylate]	88.7%	37.9%	–	–
N#CC1=C(N)n2c(s/c(=C\c3ccccc3Cl)c2=O)=C(C#N)C1c1ccccc1Cl (stereo not shown) [ST006953]	–	–	83.98 % of control	47.74 % of control
CCN(CC)c1ccc(C2C(C(=O)OC(C)C)=C(C)NC3=C2C(=O)CC(c2ccccc2)C3)cc1 (stereo not shown) [ST014875, methylethyl 4-[4-(diethylamino)phenyl]-2-methyl-5-oxo-7-phenyl-1,4,6,7,8-pentahydroquinoline-3-carboxylate]	95.7%	54.2%	–	–
CC1=C(C(=O)OC(C)C)C(c2cccc(Cl)c2Cl)C2=C(CC(c3ccccc3)CC2=O)N1 (stereo not shown) [ST013439, methylethyl 4-(2,3-dichlorophenyl)-2-methyl-5-oxo-7-phenyl-1,4,6,7,8-pentahydroquinoline-3-carboxylate]	80.3%	19.7%	–	–
CCOc1ccc(C2C(C(=O)OC(C)C)=C(C)NC3=C2C(=O)CC(c2ccc(OC)cc2)C3)cc1 (stereo not shown) [ST017011, methylethyl 4-(4-ethoxyphenyl)-7-(4-methoxyphenyl)-2-methyl-5-oxo-1,4,6,7,8-pentahydroquinoline-3-carboxylate]	74%	45.7%	–	–
COC(=O)C1=CN(Cc2ccc(F)cc2)C=C(C(=O)OC)C1c1ccc(OC)cc1OC [ST038081, methyl 4-(2,4-dimethoxyphenyl)-1-[(4-fluorophenyl)methyl]-5-(methoxycarbonyl)-1,4-dihydropyridine-3-carboxylate]	–	–	92.93 % of control	36.22 % of control
CC1=C(C(=O)Nc2ccccc2)C(c2ccsc2)C(C#N)=C(SCC(=O)Nc2ccc(Cl)c(C)c2)N1 (stereo not shown) [RI_83]	–	–	55.4 % of control	44.1 % of control
CC1=C(C(=O)OCCc2ccccc2)C(c2ccc([N+](=O)[O-])cc2)C2=C(CC(C)(C)CC2=O)N1 (stereo not shown) [ST014923, 2-phenylethyl 2,7,7-trimethyl-4-(4-nitrophenyl)-5-oxo-1,4,6,7,8-pentahydroquinoline-3-carboxylate]	28.4%	0%	–	–
COCCOC(=O)C1=C(C)NC2=C(C(=O)CCC2)C1c1cccc(OC)c1 (stereo not shown) [ST015219, 2-methoxyethyl 4-(3-methoxyphenyl)-2-methyl-5-oxo-1,4,6,7,8-pentahydroquinoline-3-carboxylate]	45.8%	83.7%	–	–
COC(=O)C1=CN(Cc2ccc3c(c2)OCO3)C=C(C(=O)OC)C1c1ccc(OC)c(OC)c1 [ST038114, methyl 1-(2H-benzo[3,4-d]1,3-dioxolen-5-ylmethyl)-4-(3,4-dimethoxyphenyl)-5-(methoxycarbonyl)-1,4-dihydropyridine-3-carboxylate]	–	–	95.92 % of control	48 % of control
